Laboratory results: ChEMBL document CHEMBL1201862, “PubChem BioAssay data set” (2004)
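Tested at 5 concentrations; 48 h exposure; 96-well plates; endpoints linearly interpolated, else capped at highest concentration. GI50 is the concentration that inhibits growth by half.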 The source made the active and inactive calls. Rule as the data show it: active = GI50 up to about 1.1 µM and inactive = higher.

How the values were obtained:
Assay in all cases: NCI-60 cell line screen, 48 h
MDA-MB-231 = system: MDA-MB-231
RXF 393 = system: RXF 393
UO-31 = system: UO-31
Malme-3M = system: Malme-3M
NCI-H522 = system: NCI-H522
NCI/ADR-RES = system: NCI/ADR-RES
SK-MEL-28 = system: SK-MEL-28
COLO 205 = system: COLO 205
MDA-N = system: MDA-N
HOP-92 = system: HOP-92
ACHN = system: ACHN
MCF7 = system: MCF7
NCI-H226 = system: NCI-H226
EKVX = system: EKVX
UACC-62 = system: UACC-62
RPMI-8226 = system: RPMI-8226
KM12 = system: KM12
CCRF-CEM = system: CCRF-CEM
SNB-75 = system: SNB-75
HCC 2998 = system: HCC 2998
NCI-H460 = system: NCI-H460
HCT-116 = system: HCT-116
SW-620 = system: SW-620
786-0 = system: 786-0
MOLT-4 = system: MOLT-4
A498 = system: A498
TK-10 = system: TK-10
OVCAR-3 = system: OVCAR-3
NCI-H23 = system: NCI-H23
OVCAR-4 = system: OVCAR-4
CAKI-1 = system: CAKI-1
MDA-MB-435 = system: MDA-MB-435
SF-268 = system: SF-268
K562 = system: K562
A549 = system: A549
HOP-62 = system: HOP-62
IGROV-1 = system: IGROV-1
OVCAR-5 = system: OVCAR-5
SF-295 = system: SF-295
SN12C = system: SN12C
M14 = system: M14
UACC-257 = system: UACC-257
OVCAR-8 = system: OVCAR-8
SF-539 = system: SF-539
SR = system: SR
DU-145 = system: DU-145
SNB-19 = system: SNB-19
HT-29 = system: HT-29
LOX IMVI = system: LOX IMVI
SK-MEL-5 = system: SK-MEL-5
T47D = system: T47D
U-251 = system: U-251
HCT-15 = system: HCT-15
PC-3 = system: PC-3
BT-549 = system: BT-549
SK-MEL-2 = system: SK-MEL-2
SK-OV-3 = system: SK-OV-3
HL-60 = system: HL-60
Hs-578T = system: Hs-578T

**Q.** Which results are given for `O=C1NCC(NC(=O)C(F)(F)F)c2c(Br)sc(Br)c21` (stereo not given)?
**A.** GI50 (MDA-MB-231): > 100 µM (inactive); GI50 (RXF 393): > 100 µM (inactive); GI50 (UO-31): > 100 µM (inactive); GI50 (Malme-3M): > 100 µM (inactive); GI50 (NCI-H522): > 100 µM (inactive); GI50 (NCI/ADR-RES): > 100 µM (inactive); GI50 (SK-MEL-28): > 100 µM (inactive); GI50 (COLO 205): > 100 µM (inactive); GI50 (MDA-N): > 100 µM (inactive); GI50 (HOP-92): > 100 µM (inactive); GI50 (ACHN): > 100 µM (inactive); GI50 (MCF7): > 100 µM (inactive); GI50 (NCI-H226): > 100 µM (inactive); GI50 (EKVX): > 100 µM (inactive); GI50 (UACC-62): > 100 µM (inactive); GI50 (RPMI-8226): > 100 µM (inactive); GI50 (KM12): > 100 µM (inactive); GI50 (CCRF-CEM): > 100 µM (inactive); GI50 (SNB-75): 24.3 µM (inactive); GI50 (HCC 2998): > 100 µM (inactive); GI50 (NCI-H460): > 100 µM (inactive); GI50 (HCT-116): > 100 µM (inactive); GI50 (SW-620): > 100 µM (inactive); GI50 (786-0): > 100 µM (inactive); GI50 (MOLT-4): > 100 µM (inactive); GI50 (A498): > 100 µM (inactive); GI50 (TK-10): > 100 µM (inactive); GI50 (OVCAR-3): > 100 µM (inactive); GI50 (NCI-H23): > 100 µM (inactive); GI50 (OVCAR-4): > 100 µM (inactive); GI50 (CAKI-1): > 100 µM (inactive); GI50 (MDA-MB-435): > 100 µM (inactive); GI50 (SF-268): > 100 µM (inactive); GI50 (K562): > 100 µM (inactive); GI50 (A549): > 100 µM (inactive); GI50 (HOP-62): > 100 µM (inactive); GI50 (IGROV-1): > 100 µM (inactive); GI50 (OVCAR-5): > 100 µM (inactive); GI50 (SF-295): > 100 µM (inactive); GI50 (SN12C): > 100 µM (inactive); GI50 (M14): > 100 µM (inactive); GI50 (UACC-257): > 100 µM (inactive); GI50 (OVCAR-8): > 100 µM (inactive); GI50 (SF-539): > 100 µM (inactive); GI50 (SR): > 100 µM (inactive); GI50 (DU-145): > 100 µM (inactive); GI50 (SNB-19): > 100 µM (inactive); GI50 (HT-29): > 100 µM (inactive); GI50 (LOX IMVI): > 100 µM (inactive); GI50 (SK-MEL-5): > 100 µM (inactive); GI50 (T47D): > 100 µM (inactive); GI50 (U-251): > 100 µM (inactive); GI50 (HCT-15): > 100 µM; GI50 (PC-3): > 100 µM (inactive); GI50 (BT-549): > 100 µM (inactive); GI50 (SK-MEL-2): > 100 µM (inactive); GI50 (SK-OV-3): > 100 µM (inactive)

**Q.** What does the source list for `O=C(O)c1ccc(P(=O)(O)c2ccc(C(=O)O)cc2Br)c(Br)c1`?
**A.** GI50 (MDA-MB-231): > 100 µM (inactive); GI50 (RXF 393): > 100 µM (inactive); GI50 (UO-31): > 100 µM (inactive); GI50 (NCI-H522): > 100 µM (inactive); GI50 (SK-MEL-28): > 100 µM (inactive); GI50 (HL-60): > 100 µM (inactive); GI50 (Hs-578T): > 100 µM (inactive); GI50 (COLO 205): > 100 µM (inactive); GI50 (MDA-N): > 100 µM (inactive); GI50 (HOP-92): > 100 µM (inactive); GI50 (MCF7): > 100 µM (inactive); GI50 (NCI-H226): > 100 µM (inactive); GI50 (EKVX): > 100 µM (inactive); GI50 (UACC-62): > 100 µM (inactive); GI50 (RPMI-8226): > 100 µM (inactive); GI50 (KM12): > 100 µM (inactive); GI50 (CCRF-CEM): > 10 µM (inactive); GI50 (SNB-75): > 100 µM (inactive); GI50 (HCC 2998): > 100 µM (inactive); GI50 (HCT-116): > 100 µM (inactive); GI50 (SW-620): > 100 µM (inactive); GI50 (786-0): > 100 µM (inactive); GI50 (MOLT-4): > 100 µM (inactive); GI50 (TK-10): > 100 µM (inactive); GI50 (OVCAR-3): > 100 µM (inactive); GI50 (NCI-H23): > 100 µM (inactive); GI50 (CAKI-1): > 100 µM (inactive); GI50 (MDA-MB-435): > 100 µM (inactive); GI50 (SF-268): > 100 µM (inactive); GI50 (K562): > 100 µM (inactive); GI50 (A549): > 100 µM (inactive); GI50 (HOP-62): > 100 µM (inactive); GI50 (IGROV-1): > 100 µM (inactive); GI50 (SF-295): > 100 µM (inactive); GI50 (SN12C): > 100 µM (inactive); GI50 (M14): > 100 µM (inactive); GI50 (UACC-257): > 100 µM (inactive); GI50 (OVCAR-8): > 100 µM (inactive); GI50 (SF-539): > 100 µM (inactive); GI50 (DU-145): > 100 µM (inactive); GI50 (SNB-19): > 100 µM (inactive); GI50 (LOX IMVI): > 100 µM (inactive); GI50 (SK-MEL-5): > 100 µM (inactive); GI50 (HCT-15): > 100 µM; GI50 (PC-3): > 100 µM (inactive); GI50 (BT-549): > 100 µM (inactive); GI50 (SK-MEL-2): > 100 µM (inactive); GI50 (SK-OV-3): > 100 µM (inactive)
